Laboratory results published in US8486977B2, “1,2,3-triazole derivatives for use as stearoyl-CoA desaturase inhibitors” (GlaxoSmithKline LLC, priority 2007, dated 2013).

melting point [°C]	Compound
190.3	Cc1c(C(=O)Nc2ccc(Cl)c(CO)c2)nnn1Cc1ccc(Cl)c(Cl)c1 [Example 45, N-[4-Chloro-3-(hydroxymethyl)phenyl]-1-[(3,4-dichlorophenyl)methyl]-5-methyl-1H-1,2,3-triazole-4-carboxamide]
148	COC(=O)c1ccc(NC(=O)c2nnn(Cc3ccc(Cl)c(Cl)c3)c2C)cc1C(=O)OC [Example 46, Dimethyl 4-[({1-[(3,4-dichlorophenyl)methyl]-5-methyl-1H-1,2,3-triazol-4-yl}carbonyl)amino]-1,2-benzenedicarboxylate]
191	COC(=O)c1cc(NC(=O)c2nnn(Cc3cc(Cl)cc(Cl)c3)c2C)ccc1F [Example 47, Methyl 5-[({1-[(3,5-dichlorophenyl)methyl]-5-methyl-1H-1,2,3-triazol-4-yl}carbonyl)amino]-2-fluorobenzoate]
167	CCOC(=O)c1ccc(NC(=O)c2nnn(Cc3ccc(Cl)c(Cl)c3)c2C)cc1 [Example 48, Ethyl 4-[({1-[(3,4-dichlorophenyl)methyl]-5-methyl-1H-1,2,3-triazol-4-yl}carbonyl)amino]benzoate]
136	COc1cc(CO)ccc1NC(=O)c1nnn(Cc2ccc(Cl)c(Cl)c2)c1C [Example 49, 1-[(3,4-Dichlorophenyl)methyl]-N-[4-(hydroxymethyl)-2-(methyloxy)phenyl]-5-methyl-1H-1,2,3-triazole-4-carboxamide]
144	Cc1c(C(=O)Nc2ccc(CCO)cc2)nnn1Cc1ccc(Cl)c(Cl)c1 [Example 50, 1-[(3,4-Dichlorophenyl)methyl]-N-[4-(2-hydroxyethyl)phenyl]-5-methyl-1H-1,2,3-triazole-4-carboxamide]
198	COc1ccc(CO)cc1NC(=O)c1nnn(Cc2ccc(Cl)c(Cl)c2)c1C [Example 51, 1-[(3,4-Dichlorophenyl)methyl]-N-[5-(hydroxymethyl)-2-(methyloxy)phenyl]-5-methyl-1H-1,2,3-triazole-4-carboxamide]
194.5	Cc1c(C(=O)Nc2cc(CO)cc(CO)c2)nnn1Cc1ccc(Cl)c(Cl)c1 [Example 52, N-[3,5-bis(Hydroxymethyl)phenyl]-1-[(3,4-dichlorophenyl)methyl]-5-methyl-1H-1,2,3-triazole-4-carboxamide]
189.7	Cc1c(C(=O)Nc2ccc(F)c(CO)c2)nnn1Cc1ccc(Cl)c(Cl)c1 [Example 53, 1-[(3,4-Dichlorophenyl)methyl]-N-[4-fluoro-3-(hydroxymethyl)phenyl]-5-methyl-1H-1,2,3-triazole-4-carboxamide]
138	COc1ccc(CCO)cc1NC(=O)c1nnn(Cc2ccc(Cl)c(Cl)c2)c1C [Example 54, 1-[(3,4-Dichlorophenyl)methyl]-N-[5-(2-hydroxyethyl)-2-(methyloxy)phenyl]-5-methyl-1H-1,2,3-triazole-4-carboxamide]
210.5	Cc1c(C(=O)Nc2cc(CO)ccc2F)nnn1Cc1ccc(Cl)c(Cl)c1 [Example 55, 1-[(3,4-Dichlorophenyl)methyl]-N-[2-fluoro-5-(hydroxymethyl)phenyl]-5-methyl-1H-1,2,3-triazole-4-carboxamide]
220	Cc1c(C(=O)Nc2cc(CO)ccc2Cl)nnn1Cc1ccc(Cl)c(Cl)c1 [Example 56, N-[2-Chloro-5-(hydroxymethyl)phenyl]-1-[(3,4-dichlorophenyl)methyl]-5-methyl-1H-1,2,3-triazole-4-carboxamide]
214	COc1ccc(CO)cc1NC(=O)c1nnn(Cc2cc(Cl)cc(Cl)c2)c1C [Example 57, 1-[(3,5-Dichlorophenyl)methyl]-N-[5-(hydroxymethyl)-2-(methyloxy)phenyl]-5-methyl-1H-1,2,3-triazole-4-carboxamide]
203	Cc1c(C(=O)Nc2ccc(CO)c(CO)c2)nnn1Cc1ccc(Cl)c(Cl)c1 [Example 58, N-[3,4-bis(Hydroxymethyl)phenyl]-1-[(3,4-dichlorophenyl)methyl]-5-methyl-1H-1,2,3-triazole-4-carboxamide]
